Results on 26 molecules are retold here after patent US10435399B2, “HDAC6 inhibitory heterocyclic compound” (TAKEDA PHARMACEUTICAL COMPANY LIMITED, priority 2017, dated 2019).

This test concerns the target T1, HDAC6 enzyme (Homo sapiens, UniProt Q9UBN7).
T1 construct: transducing full length HDAC6 gene into Sf-9 insect cells; GST; purchased SignalChem; host or cells: Sf-9 insect cells
T1 sequence (Q9UBN7 1-1215): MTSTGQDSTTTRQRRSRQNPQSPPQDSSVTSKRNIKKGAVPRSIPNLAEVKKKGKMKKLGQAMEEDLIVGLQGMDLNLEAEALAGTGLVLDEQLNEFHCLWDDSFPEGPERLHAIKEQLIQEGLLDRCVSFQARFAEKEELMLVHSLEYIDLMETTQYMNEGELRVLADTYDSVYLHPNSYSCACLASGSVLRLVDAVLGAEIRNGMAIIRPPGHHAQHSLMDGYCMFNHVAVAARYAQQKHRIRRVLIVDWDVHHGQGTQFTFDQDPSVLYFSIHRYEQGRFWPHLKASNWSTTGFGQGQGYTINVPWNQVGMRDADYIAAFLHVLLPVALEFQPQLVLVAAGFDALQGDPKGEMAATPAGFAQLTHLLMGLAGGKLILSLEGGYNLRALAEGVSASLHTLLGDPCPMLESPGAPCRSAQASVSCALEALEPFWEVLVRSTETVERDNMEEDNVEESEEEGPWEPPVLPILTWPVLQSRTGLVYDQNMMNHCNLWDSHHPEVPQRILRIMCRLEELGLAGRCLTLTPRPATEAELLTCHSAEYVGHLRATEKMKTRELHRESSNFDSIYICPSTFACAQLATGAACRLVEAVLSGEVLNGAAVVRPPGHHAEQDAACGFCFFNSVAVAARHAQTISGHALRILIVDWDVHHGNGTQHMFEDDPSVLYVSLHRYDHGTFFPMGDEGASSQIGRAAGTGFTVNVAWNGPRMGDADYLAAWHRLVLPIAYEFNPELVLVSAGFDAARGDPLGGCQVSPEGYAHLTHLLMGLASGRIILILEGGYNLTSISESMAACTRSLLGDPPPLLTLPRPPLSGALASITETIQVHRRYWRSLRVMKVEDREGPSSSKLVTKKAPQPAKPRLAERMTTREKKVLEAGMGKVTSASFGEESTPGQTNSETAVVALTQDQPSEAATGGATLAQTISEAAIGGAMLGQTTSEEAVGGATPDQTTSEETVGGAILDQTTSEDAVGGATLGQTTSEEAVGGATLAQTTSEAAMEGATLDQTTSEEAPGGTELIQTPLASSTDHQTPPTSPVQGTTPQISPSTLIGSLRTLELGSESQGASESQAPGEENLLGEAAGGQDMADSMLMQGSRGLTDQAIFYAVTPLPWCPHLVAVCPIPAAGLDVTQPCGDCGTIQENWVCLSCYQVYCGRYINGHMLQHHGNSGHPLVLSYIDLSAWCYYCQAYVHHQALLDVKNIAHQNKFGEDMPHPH
As to the kind of experiment: HDAC6 enzyme inhibitory activity (HDAC-Glo I/II Assay kit). It counts as biochemical. To be noted: 10 μM; wells without enzyme = 100% inhibition; read-out: HDAC6 inhibitory rate (%) (10 μM). Put shortly:
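Luminescence read-out after 20 min reaction with HDAC-Glo substrate-developer, following 60 min room-temperature preincubation of compound with Sf-9-expressed, GST-purified full-length enzyme. Inhibition is relative to no-enzyme wells set as 100%.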
Turning to `N[C@@H]1CCCC[C@H]1N1Cc2ncc(-c3nnc(C(F)F)o3)cc2C1=O` [Example 231, 6-((1R,2R)-2-aminocyclohexyl)-3-(5-(difluoromethyl)-1,3,4-oxadiazol-2-yl)-6,7-dihydro-5H-pyrrolo[3,4-b]pyridin-5-one], the inhibition at 10 µM worked out at 98%.

For `O=C(O[C@@H]1CCCC[C@H]1N1Cc2ccc(-c3nnc(C(F)F)o3)cc2C1=O)N1CCC1` [Example 232, (1R,2R)-2-(6-(5-(difluoromethyl)-1,3,4-oxadiazol-2-yl)-1-oxo-1,3-dihydro-2H-isoindol-2-yl)-cyclohexyl azetidine-1-carboxylate], the inhibition at 10 µM came to 98%.

On to `O=C(O[C@@H]1CCCC[C@H]1N1Cc2ccc(-c3nnc(C(F)F)o3)cc2C1=O)N1CCCC1` [Example 233, (1R,2R)-2-(6-(5-(difluoromethyl)-1,3,4-oxadiazol-2-yl)-1-oxo-1,3-dihydro-2H-isoindol-2-yl)-cyclohexyl pyrrolidine-1-carboxylate], for which the inhibition at 10 µM amounted to 100%.

For the molecule `O=C1c2cc(-c3nnc(C(F)F)o3)ccc2CN1CCOCc1ccccc1` [Example 234, 2-(2-(benzyloxy)ethyl)-6-(5-(difluoromethyl)-1,3,4-oxadiazol-2-yl)isoindolin-1-one], the inhibition at 10 µM was 98%.

As to `O=C1c2cc(-c3nnc(C(F)F)o3)cnc2CN1[C@@H]1CCCC[C@H]1NC(=O)C1(C(F)F)CC1` [Example 235, 1-(difluoromethyl)-N-((1R,2R)-2-(3-(5-(difluoromethyl)-1,3,4-oxadiazol-2-yl)-5-oxo-5,7-dihydro-6H-pyrrolo[3,4-b]pyridin-6-yl)-cyclohexyl)cyclopropane-carboxamide], the inhibition at 10 µM turned out to be 99%.

With `O=C1c2cc(-c3nnc(C(F)F)o3)cc(F)c2CN1[C@@H]1CCCC[C@H]1NC(=O)C1(C(F)F)CC1` [Example 236, 1-(difluoromethyl)-N-((1R,2R)-2-(6-(5-(difluoromethyl)-1,3,4-oxadiazol-2-yl)-4-fluoro-1-oxo-1,3-dihydro-2H-isoindol-2-yl)-cyclohexyl)cyclopropanecarbox-amide], the inhibition at 10 µM was 98%.

As for `O=C1c2cc(-c3nnc(C(F)F)o3)cnc2CN1[C@@H]1CCCC[C@H]1NC(=O)C(F)(F)C1CC1` [Example 237], the inhibition at 10 µM is 100%.

As for `O=C1c2cc(-c3nnc(C(F)F)o3)ccc2CN1c1ccccc1-c1ccccn1` [Example 238, 6-(5-(difluoromethyl)-1,3,4-oxadiazol-2-yl)-2-(2-(pyridin-2-yl)phenyl)isoindolin-1-one], the inhibition at 10 µM is 100%.

Take `O=C1c2ccc(-c3nnc(C(F)F)o3)cc2C(=O)N1C[C@H]1COCCN1S(=O)(=O)C1CC1` [Example 239, 2-(((3S)-4-(cyclopropylsulfonyl)-morpholin-3-yl)methyl)-5-(5-(difluoromethyl)-1,3,4-oxadiazol-2-yl)-1H-isoindole-1,3(2H)-dione]: the inhibition at 10 µM turned out to be 99%.

Take `O=C1c2cc(-c3nnc(C(F)F)o3)cnc2CN1c1ccccc1Br` [Example 240, 6-(2-bromophenyl)-3-(5-(difluoro-methyl)-1,3,4-oxadiazol-2-yl)-6,7-dihydro-5H-pyrrolo[3,4-b]-pyridin-5-one]: the inhibition at 10 µM stood at 98%.

With `O=C1c2cc(-c3nnc(C(F)F)o3)ccc2CN1c1ccc(Cl)cc1Br` [Example 241, 2-(2-bromo-4-chlorophenyl)-6-(5-(difluoromethyl)-1,3,4-oxadiazol-2-yl)isoindolin-1-one], the inhibition at 10 µM worked out at 91%.

Take `O=C1c2cc(-c3nnc(C(F)F)o3)cc(F)c2CN1[C@@H]1CCCC[C@H]1NS(=O)(=O)C1CC1` [Example 242, N-((1R,2R)-2-(6-(5-(difluoro-methyl)-1,3,4-oxadiazol-2-yl)-4-fluoro-1-oxo-1,3-dihydro-2H-isoindol-2-yl)cyclohexyl)-cyclopropanesulfonamide]: the inhibition at 10 µM stood at 101%.

In the case of `N#Cc1cccc(-c2ccccc2N2Cc3ncc(-c4nnc(C(F)F)o4)cc3C2=O)c1` [Example 243, 2′-(3-(5-(difluoromethyl)-1,3,4-oxadiazol-2-yl)-5-oxo-5,7-dihydro-6H-pyrrolo[3,4-b]pyridin-6-yl)biphenyl-3-carbonitrile], the inhibition at 10 µM worked out at 99%.

For the molecule `O=C1c2cc(-c3nnc(C(F)F)o3)cc(F)c2CN1[C@@H]1CCCC[C@H]1NS(=O)(=O)CC(F)(F)F` [Example 244], the inhibition at 10 µM came out at 101%.

As for `O=C1c2cc(-c3nnc(C(F)F)o3)ccc2CN1[C@@H]1CCCC[C@H]1NS(=O)(=O)CC(F)(F)F` [Example 245, N-((1R,2R)-2-(6-(5-(difluoro-methyl)-1,3,4-oxadiazol-2-yl)-1-oxo-1,3-dihydro-2H-isoindol-2-yl)cyclohexyl)-2,2,2-trifluoro-ethanesulfonamide], the inhibition at 10 µM is 101%.

As to `O=C1c2cc(-c3nnc(C(F)F)o3)ccc2CN1[C@@H]1CCCC[C@H]1NS(=O)(=O)C1CC1` [Example 246, N-((1R,2R)-2-(6-(5-(difluoro-methyl)-1,3,4-oxadiazol-2-yl)-1-oxo-1,3-dihydro-2H-isoindol-2-yl)cyclohexyl)cyclopropane-sulfonamide], the inhibition at 10 µM was 100%.

Take `O=C1c2cc(-c3nnc(C(F)F)o3)ccc2CN1c1ccc(F)cc1Br` [Example 247, 2-(2-bromo-4-fluorophenyl)-6-(5-(difluoromethyl)-1,3,4-oxadiazol-2-yl)isoindolin-1-one]: the inhibition at 10 µM came out at 94%.

On to `N#Cc1cccc(-c2cc(Cl)ccc2N2Cc3ccc(-c4nnc(C(F)F)o4)cc3C2=O)c1` [Example 248, 5′-chloro-2′-(6-(5-(difluoro-methyl)-1,3,4-oxadiazol-2-yl)-1-oxo-1,3-dihydro-2H-isoindol-2-yl)biphenyl-3-carbonitrile], for which the inhibition at 10 µM worked out at 100%.

Turning to `N#Cc1cccc(-c2cc(F)ccc2N2Cc3ccc(-c4nnc(C(F)F)o4)cc3C2=O)c1` [Example 249, 2′-(6-(5-(difluoromethyl)-1,3,4-oxadiazol-2-yl)-1-oxo-1,3-dihydro-2H-isoindol-2-yl)-5′-fluorobiphenyl-3-carbonitrile], the inhibition at 10 µM was 100%.

As to `Cn1cc(Br)c(N2Cc3ccc(-c4nnc(C(F)F)o4)cc3C2=O)n1` [Example 250, 2-(4-bromo-1-methyl-1H-pyrazol-3-yl)-6-(5-(difluoro-methyl)-1,3,4-oxadiazol-2-yl)isoindolin-1-one], the inhibition at 10 µM came out at 95%.

Regarding `O=C1c2cc(-c3nnc(C(F)F)o3)cc(F)c2CN1C[C@H]1COCCN1S(=O)(=O)c1ccccc1F` [Example 251, 6-(5-(difluoromethyl)-1,3,4-oxadiazol-2-yl)-4-fluoro-2-(((3S)-4-((2-fluorophenyl)-sulfonyl)morpholin-3-yl)-methyl)isoindolin-1-one], the inhibition at 10 µM amounted to 100%.

For the molecule `O=C1c2cc(-c3nnc(C(F)F)o3)cc(F)c2CN1C[C@H]1COCCN1S(=O)(=O)c1ccc(F)cc1` [Example 252, 6-(5-(difluoromethyl)-1,3,4-oxadiazol-2-yl)-4-fluoro-2-(((3S)-4-((4-fluorophenyl)-sulfonyl)morpholin-3-yl)-methyl)isoindolin-1-one], the inhibition at 10 µM turned out to be 99%.

With `O=C1c2cc(-c3nnc(C(F)F)o3)ccc2CN1c1cc(Cl)ccc1Br` [Example 253, 2-(2-bromo-5-chlorophenyl)-6-(5-(difluoromethyl)-1,3,4-oxadiazol-2-yl)isoindolin-1-one], the inhibition at 10 µM worked out at 72%.

As for `O=C(O[C@@H]1CCCC[C@H]1N1Cc2ccc(-c3nnc(C(F)F)o3)cc2C1=O)N1CCCCC1` [Example 254, (1R,2R)-2-(6-(5-(difluoro-methyl)-1,3,4-oxadiazol-2-yl)-1-oxo-1,3-dihydro-2H-isoindol-2-yl)cyclohexyl piperidine-1-carboxylate], the inhibition at 10 µM came to 102%.

Turning to `CC(C)(C)OC(=O)N[C@H]1CCCC[C@H]1N1Cc2ccc(-c3nnc(C(F)F)o3)cc2C1=O` [Example 255, tert-butyl ((1S,2R)-2-(6-(5-(difluoromethyl)-1,3,4-oxadiazol-2-yl)-1-oxo-1,3-dihydro-2H-isoindol-2-yl)cyclohexyl)carbamate], the inhibition at 10 µM is 100%.

In the case of `N[C@H]1CCCC[C@H]1N1Cc2ccc(-c3nnc(C(F)F)o3)cc2C1=O` [Example 256], the inhibition at 10 µM was 91%.
